Experimental data: patent US9765105B2, “Macrolide compound” (Pulike Biological Engineering, Inc., priority 2013, dated 2017)

How the values were obtained:
Assay in all cases: in vitro susceptibility, MIC by mini broth dilution
Assay type in all cases: cell-based
[1] = system: Staphylococcus aureus CVCC26003; conditions: strain CVCC26003
Summary of the method: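 MICs were determined by mini broth dilution under NCCLS standards in CAMHB, using revived S. aureus CVCC26003 subcultured 20 h at 35° C. Compounds were two-fold serially diluted in DMSO across 11 wells, with duplicate rows. Bacterial suspension was diluted 1:200 in medium before inoculation.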

[2] = system: Pasteurella multocida CVCC399; conditions: strain CVCC399
Summary of the method: (§1)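 Following the NCCLS standard, each compound is serially halved in DMSO to give 11 concentrations, run in duplicate alongside a control well. Inocula come from colonies grown 20 h at 35° C and are diluted 1:200 into broth; MIC is taken by mini broth dilution.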

Haemophilus parasuis = system: Haemophilus parasuis
Summary of the method: as §1

[3] = system: Streptococcus equines CVCC556; conditions: strain CVCC556
Summary of the method: as §1

[4] = system: Actinobacillus pleuropneumoniae CVCC262; conditions: strain CVCC262
Summary of the method: as §1

Row | Compound | MIC values, Staphylococcus aureus CVCC26003 [1] | MIC values, Pasteurella multocida CVCC399 [2] | MIC values, Haemophilus parasuis (Haemophilus parasuis) | MIC values, Streptococcus equines CVCC556 [3] | MIC values, Actinobacillus pleuropneumoniae CVCC262 [4]
1 | CCCN1C[C@H](C)[C@@H](O)[C@](C)(O)[C@@H](CC)OC(=O)[C@H](C)[C@@H](O[C@H]2C[C@@](C)(OC)[C@](O)(CNc3ccc(C)o3)[C@H](C)O2)[C@H](C)[C@@H](O[C@@H]2O[C@H](C)C[C@H](N(C)C)[C@H]2O)[C@](C)(O)C[C@H]1C [syzx-178] | 4 ug/mi | 4 ug/mi | 4 ug/mi | 0.5 ug/mi | 2 ug/mi
2 | CCCN1CC(C)C(O)C(C)(O)C(CC)OC(=O)C(C)C(OC2CC(C)(OC)C(O)(CNNc3ccc(F)cc3)C(C)O2)C(C)C(OC2OC(C)CC(N(C)C)C2O)C(C)(O)CC1C (stereo not drawn) [syzx-181] | 0.25 ug/mi | 1 ug/mi | 0.25 ug/mi | 0.25 ug/mi | 0.5 ug/mi
3 | CCCN1C[C@H](C)[C@@H](O)[C@](C)(O)[C@@H](CC)OC(=O)[C@H](C)[C@@H](O[C@H]2C[C@@](C)(OC)[C@](O)(CNOCc3ccccc3)[C@H](C)O2)[C@H](C)[C@@H](O[C@@H]2O[C@H](C)C[C@H](N(C)C)[C@H]2O)[C@](C)(O)C[C@H]1C [syzx-182] | 1 ug/mi | 4 ug/mi | 0.5 ug/mi | 0.5 ug/mi | 0.5 ug/mi
4 | CCCN1C[C@H](C)[C@@H](O)[C@](C)(O)[C@@H](CC)OC(=O)[C@H](C)[C@@H](O[C@H]2C[C@@](C)(OC)[C@](O)(CNc3ccc(OC)cc3)[C@H](C)O2)[C@H](C)[C@@H](O[C@@H]2O[C@H](C)C[C@H](N(C)C)[C@H]2O)[C@](C)(O)C[C@H]1C [syzx-183] | 0.25 ug/mi | 2 ug/mi | 0.25 ug/mi | 0.25 ug/mi | 0.5 ug/mi
5 | CCCN1C[C@H](C)[C@@H](O)[C@](C)(O)[C@@H](CC)OC(=O)[C@H](C)[C@@H](O[C@H]2C[C@@](C)(OC)[C@](O)(CNc3ccc(C)c(C)c3)[C@H](C)O2)[C@H](C)[C@@H](O[C@@H]2O[C@H](C)C[C@H](N(C)C)[C@H]2O)[C@](C)(O)C[C@H]1C [syzx-184] | 2 ug/mi | 4 ug/mi | 2 ug/mi | 0.5 ug/mi | 2 ug/mi
6 | CCCN1C[C@H](C)[C@@H](O)[C@](C)(O)[C@@H](CC)OC(=O)[C@H](C)[C@@H](O[C@H]2C[C@@](C)(OC)[C@](O)(CNCCCN3CCOCC3)[C@H](C)O2)[C@H](C)[C@@H](O[C@@H]2O[C@H](C)C[C@H](N(C)C)[C@H]2O)[C@](C)(O)C[C@H]1C [syzx-188] | 0.5 ug/mi | 1 ug/mi | 0.5 ug/mi | 0.25 ug/mi | 0.5 ug/mi
7 | CCCN1CC(C)C(O)C(C)(O)C(CC)OC(=O)C(C)C(OC2CC(C)(OC)C(O)(CNCCN3CCCC3)C(C)O2)C(C)C(OC2OC(C)CC(N(C)C)C2O)C(C)(O)CC1C (stereo not drawn) [syzx-190] | 0.25 ug/mi | 1 ug/mi | 0.25 ug/mi | 0.25 ug/mi | 0.5 ug/mi
8 | CCCN1C[C@H](C)[C@@H](O)[C@](C)(O)[C@@H](CC)OC(=O)[C@H](C)[C@@H](O[C@H]2C[C@@](C)(OC)[C@](O)(CNCCc3ccncc3)[C@H](C)O2)[C@H](C)[C@@H](O[C@@H]2O[C@H](C)C[C@H](N(C)C)[C@H]2O)[C@](C)(O)C[C@H]1C [syzx-191] | 1 ug/mi | 4 ug/mi | 0.5 ug/mi | 0.5 ug/mi | 0.5 ug/mi
9 | CCCN1C[C@H](C)[C@@H](O)[C@](C)(O)[C@@H](CC)OC(=O)[C@H](C)[C@@H](O[C@H]2C[C@@](C)(OC)[C@](O)(CNCc3ccccc3F)[C@H](C)O2)[C@H](C)[C@@H](O[C@@H]2O[C@H](C)C[C@H](N(C)C)[C@H]2O)[C@](C)(O)C[C@H]1C [syzx-192] | 4 ug/mi | 4 ug/mi | 4 ug/mi | 0.5 ug/mi | 4 ug/mi
10 | CCCN1C[C@H](C)[C@@H](O)[C@](C)(O)[C@@H](CC)OC(=O)[C@H](C)[C@@H](O[C@H]2C[C@@](C)(OC)[C@](O)(CNCC3CCNCC3)[C@H](C)O2)[C@H](C)[C@@H](O[C@@H]2O[C@H](C)C[C@H](N(C)C)[C@H]2O)[C@](C)(O)C[C@H]1C [syzx-193] | 4 ug/mi | 2 ug/mi | 2 ug/mi | 0.25 ug/mi | 4 ug/mi
11 | CCCN1C[C@H](C)[C@@H](O)[C@](C)(O)[C@@H](CC)OC(=O)[C@H](C)[C@@H](O[C@H]2C[C@@](C)(OC)[C@](O)(CNc3ccc(Cl)cc3C)[C@H](C)O2)[C@H](C)[C@@H](O[C@@H]2O[C@H](C)C[C@H](N(C)C)[C@H]2O)[C@](C)(O)C[C@H]1C [syzx-197] | 0.25 ug/mi | 1 ug/mi | 0.25 ug/mi | 0.25 ug/mi | 0.5 ug/mi
12 | CCCCN(C)C[C@]1(O)[C@H](C)O[C@@H](O[C@H]2[C@H](C)[C@@H](O[C@@H]3O[C@H](C)C[C@H](N(C)C)[C@H]3O)[C@](C)(O)C[C@@H](C)N(CCC)C[C@H](C)[C@@H](O)[C@](C)(O)[C@@H](CC)OC(=O)[C@@H]2C)C[C@@]1(C)OC [syzx-198] | 1 ug/mi | 4 ug/mi | 0.5 ug/mi | 0.5 ug/mi | 0.5 ug/mi
13 | CCCN1C[C@H](C)[C@@H](O)[C@](C)(O)[C@@H](CC)OC(=O)[C@H](C)[C@@H](O[C@H]2C[C@@](C)(OC)[C@](O)(CNc3nc(Cl)cc(Cl)n3)[C@H](C)O2)[C@H](C)[C@@H](O[C@@H]2O[C@H](C)C[C@H](N(C)C)[C@H]2O)[C@](C)(O)C[C@H]1C [syzx-202] | 2 ug/mi | 2 ug/mi | 4 ug/mi | 0.25 ug/mi | 2 ug/mi
14 | CCCN1C[C@H](C)[C@@H](O)[C@](C)(O)[C@@H](CC)OC(=O)[C@H](C)[C@@H](O[C@H]2C[C@@](C)(OC)[C@](O)(CNC3CCCCCC3)[C@H](C)O2)[C@H](C)[C@@H](O[C@@H]2O[C@H](C)C[C@H](N(C)C)[C@H]2O)[C@](C)(O)C[C@H]1C [syzx-203] | 1 ug/mi | 0.25 ug/mi | 0.5 ug/mi | 1 ug/mi | 1 ug/mi
15 | CCCN1C[C@H](C)[C@@H](O)[C@](C)(O)[C@@H](CC)OC(=O)[C@H](C)[C@@H](O[C@H]2C[C@@](C)(OC)[C@](O)(CN3CCOCC3)[C@H](C)O2)[C@H](C)[C@@H](O[C@@H]2O[C@H](C)C[C@H](N(C)C)[C@H]2O)[C@](C)(O)C[C@H]1C [syzx-204] | 4 ug/mi | 4 ug/mi | 4 ug/mi | 0.5 ug/mi | 4 ug/mi
16 | CCCN1C[C@H](C)[C@@H](O)[C@](C)(O)[C@@H](CC)OC(=O)[C@H](C)[C@@H](O[C@H]2C[C@@](C)(OC)[C@](O)(CNCCCC(OC)OC)[C@H](C)O2)[C@H](C)[C@@H](O[C@@H]2O[C@H](C)C[C@H](N(C)C)[C@H]2O)[C@](C)(O)C[C@H]1C [syzx-205] | 4 ug/mi | 4 ug/mi | 4 ug/mi | 0.5 ug/mi | 4 ug/mi
17 | CCCN1C[C@H](C)[C@@H](O)[C@](C)(O)[C@@H](CC)OC(=O)[C@H](C)[C@@H](O[C@H]2C[C@@](C)(OC)[C@](O)(CNN3CCCCC3)[C@H](C)O2)[C@H](C)[C@@H](O[C@@H]2O[C@H](C)C[C@H](N(C)C)[C@H]2O)[C@](C)(O)C[C@H]1C [syzx-206] | 0.5 ug/mi | 0.5 ug/mi | 0.25 ug/mi | 0.25 ug/mi | 0.25 ug/mi
18 | CCCN1C[C@H](C)[C@@H](O)[C@](C)(O)[C@@H](CC)OC(=O)[C@H](C)[C@@H](O[C@H]2C[C@@](C)(OC)[C@](O)(CNc3ccc(Cl)nc3)[C@H](C)O2)[C@H](C)[C@@H](O[C@@H]2O[C@H](C)C[C@H](N(C)C)[C@H]2O)[C@](C)(O)C[C@H]1C [syzx-208] | 4 ug/mi | 4 ug/mi | 4 ug/mi | 0.5 ug/mi | 4 ug/mi
